# Measurements as given in US20240293367A1, “METHODS OF TREATING DISORDERS WITH A […]” (Cybin IRL Limited, priority 2023, published 2024).
# Read-outs that look alike come from different tables or passages of the source.
# Assay: Phase I/IIa clinical PK of oral psilocin-d10, plasma, noncompartmental analysis (Cohorts 1-6)
# Type: in vivo, human
# Details: for AUC(0-t) / AUC(0-inf) / Cmax / half-life / Vd/F / Tmax: human, plasma; for AUC(0-t) / AUC(0-inf) / Cmax / half-life / Vd/F: po; for AUC(0-inf): read-out: AUC0-inf Mean (SD); for half-life: read-out: T1/2 Mean (SD) (converted); for Vd/F: read-out: Vz/F Mean (SD); for Tmax: read-out: Tmax Median
# Procedure: Phase I/IIa, Randomized, Double-Blind, Placebo-Controlled Study which assesses the safety, tolerability, pharmacokinetics, and pharmacodynamics of multiple ascending oral doses of psilocin-d10 in participants with and without MDD (ClinicalTrials.gov Identifier: NCT05385783). All subjects receiving study medication in Cohorts 1-6 received oral psilocin-d10 powder in solution (0.1M citric acid+Tang orange drink, 30 mL dose in a dose cup) and subjects receiving placebo received a similar volume of Tang orange drink without the psilocin-d10 study drug. All subjects receiving study medication in the relative bioavailability (BA) cohort received powder-filled capsules containing psilocin-d10 benzenesulfonate salt by ingestion with approximately 240 mL room temperature water, or oral psilocin-d10 powder in solution (0.1M citric acid+Tang orange drink, 30 mL dose in a dose cup) in a cross-over design. Psilocin-d10 for the powder in solution dosage form was manufactured by Patheon Pharma Services, with an isotopic purity of 79.89%. Psilocin-d10 benzenesulfonate salt for the powder-filled capsule dosage form was manufactured by Patheon Pharma Services, with an isotopic purity of 85.20%.
# Cohorts 1, 4, 5, and 6 of the study was comprised of participants with MDD. Cohorts 2, 3, and the relative BA cohort of the study were comprised of normal healthy volunteers (NHV). […] MDD participants had been on a stable dose of antidepressant medication for at least one month prior to screening with an inadequate response to that antidepressant medication as judged by the Investigator, and continued to receive their prescribed antidepressant throughout the course of the study.
# Cohort 1. For Cohort 1, 2 sentinel subjects were randomized and dosed, including 1 subject who received a psilocin-d10 1 mg oral dose and 1 subject who received a placebo dose. After the sentinel subjects were dosed, an additional 2 subjects were dosed, including a replacement subject for one of the sentinel subjects who withdrew consent and one additional subject. In total, four Cohort 1 subjects received a first dose of study medication on Day 1, and 3 subjects received a second dose of study medication on Day 22. For the first dose, 2 subjects received an active psilocin-d10 1 mg dose and 2 subjects received placebo. For the second dose, 3 subjects received an active psilocin-d10 1 mg dose.
# Cohort 2. For Cohort 2, 4 subjects were randomized and dosed on Day 1 (2 subjects on one day, 2 subjects on the next day), including 3 subjects who received a psilocin-d10 3 mg oral dose and 1 subject who received a placebo dose. These same 4 subjects were again dosed on Day 8 (2 subjects on one day, 2 subjects on the next day), with all 4 subjects receiving a psilocin-d10 8 mg oral dose (note the actual washout was 11 days between doses).
# Cohort 3. For Cohort 3 Day 1, 4 subjects were randomized and dosed on Day 1 (2 subjects on one day, 2 subjects on the next day), including 3 subjects who received a psilocin-do 8 mg oral dose and 1 subject who received a placebo dose. […] Another subject was dosed and left the study after the 2-hour PK sampling and has limited PK samples available for analysis from 0 to 2 hours—this subject's PK data has thus been excluded from the analysis presented hereinafter. For Cohort 3 Day 8, 3 subjects were dosed on Day 8 with a psilocin-d10 10 mg dose (2 sentinel subjects were dosed on one day, 1 non-sentinel subject was dosed on the next day).
# Cohorts 4 and 5. For Cohorts 4 and 5, 12 participants each (24 participants total) were randomized in a 3:1 ratio to receive 12 mg of psilocin-d10 or matched placebo in a single dosing session on Day 1. Following a 21-day interval, all participants received a dose of 12 mg psilocin-d10 on Day 22 (second dose for participants originally randomized to psilocin-d10, first dose for participants randomized to placebo), and were followed to Day 42.
# Cohort 6. […]
# [1] = 8 mg, 8 mg oral, Cohorts 2 and 3 NHV, pooled
# [2] = 10 mg, 10 mg oral, Cohort 3 NHV, Day 8
# [3] = 12 mg, 12 mg oral, Cohort 4 MDD, Day 1 and Day 22
# [4] = 12 mg, 12 mg oral, Cohort 5 MDD, Day 1 and Day 22
# [5] = 12 mg, 12 mg oral, Cohorts 4 and 5 MDD, Day 1 and Day 22
# [6] = 16 mg, 16 mg oral, Cohort 6 MDD, all subjects incl. 3 with emesis
smiles,measurement,setting,value
"[2H]C([2H])([2H])N(C([2H])([2H])[2H])C([2H])([2H])C([2H])([2H])c1c[nH]c2cccc(O)c12 [psilocin-d10, 3-(2-(bis(methyl-d3)amino)ethyl-1,1,2,2-d4)-1H-indol-4-ol]",AUC(0-t),"8 mg, 8 mg oral, Cohorts 2 and 3 NHV, pooled, 2 subjects excluded, read-out: AUC0-24 Mean (SD)",84 ng·h/mL
same,AUC(0-inf),[1],87.8 ng·h/mL
same,AUC(0-t),"8 mg, 8 mg oral, Cohorts 2 and 3 NHV, pooled, read-out: AUClast Mean (SD)",84 ng·h/mL
same,Cmax,"8 mg, 8 mg oral, Cohorts 2 and 3 NHV, pooled, read-out: Cmax Median",17.1 ng/mL
same,half-life,[1],331 min
same,Vd/F,[1],744 L
same,AUC(0-t),"10 mg, 10 mg oral, Cohort 3 NHV, Day 8, read-out: AUC0-24 Mean (SD)",101 ng·h/mL
same,AUC(0-inf),[2],106 ng·h/mL
same,AUC(0-t),"10 mg, 10 mg oral, Cohort 3 NHV, Day 8, read-out: AUClast Mean (SD)",101 ng·h/mL
same,Cmax,"10 mg, 10 mg oral, Cohort 3 NHV, Day 8, read-out: Cmax Mean (SD)",13.4 ng/mL
same,Cmax,"10 mg, 10 mg oral, Cohort 3 NHV, Day 8, read-out: Cmax Median",10.9 ng/mL
same,half-life,[2],307 min
same,Vd/F,[2],758 L
same,AUC(0-t),"12 mg, 12 mg oral, Cohort 4 MDD, Day 1 and Day 22, read-out: AUC0-24 Mean (SD)",155 ng·h/mL
same,AUC(0-inf),[3],165 ng·h/mL
same,AUC(0-t),"12 mg, 12 mg oral, Cohort 4 MDD, Day 1 and Day 22, read-out: AUClast Mean (SD)",154 ng·h/mL
same,Cmax,"12 mg, 12 mg oral, Cohort 4 MDD, Day 1 and Day 22, read-out: Cmax Mean (SD)",19.7 ng/mL
same,Cmax,"12 mg, 12 mg oral, Cohort 4 MDD, Day 1 and Day 22, read-out: Cmax Median",18.6 ng/mL
same,half-life,[3],337 min
same,Vd/F,[3],668 L
same,AUC(0-t),"12 mg, 12 mg oral, Cohort 5 MDD, Day 1 and Day 22, read-out: AUC0-24 Mean (SD)",137 ng·h/mL
same,AUC(0-inf),[4],144 ng·h/mL
same,AUC(0-t),"12 mg, 12 mg oral, Cohort 5 MDD, Day 1 and Day 22, read-out: AUClast Mean (SD)",137 ng·h/mL
same,Cmax,"12 mg, 12 mg oral, Cohort 5 MDD, Day 1 and Day 22, read-out: Cmax Mean (SD)",16.9 ng/mL
same,Cmax,"12 mg, 12 mg oral, Cohort 5 MDD, Day 1 and Day 22, read-out: Cmax Median",14.8 ng/mL
same,half-life,[4],305 min
same,Vd/F,[4],666 L
same,AUC(0-t),"12 mg, 12 mg oral, Cohorts 4 and 5 MDD, Day 1 and Day 22, read-out: AUC0-24 Mean (SD)",146 ng·h/mL
same,AUC(0-inf),[5],155 ng·h/mL
same,AUC(0-t),"12 mg, 12 mg oral, Cohorts 4 and 5 MDD, Day 1 and Day 22, read-out: AUClast Mean (SD)",145 ng·h/mL
same,Cmax,"12 mg, 12 mg oral, Cohorts 4 and 5 MDD, Day 1 and Day 22, read-out: Cmax Mean (SD)",18.2 ng/mL
same,Cmax,"12 mg, 12 mg oral, Cohorts 4 and 5 MDD, Day 1 and Day 22, read-out: Cmax Median",16.2 ng/mL
same,half-life,[5],321 min
same,Vd/F,[5],~667 L
same,Cmax,"16 mg, 16 mg oral, Cohort 6 MDD, Day 1 and Day 22, all subjects incl. 3 with emesis, read-out: Cmax Mean (SD)",19.8 ng/mL
same,AUC(0-t),"16 mg, 16 mg oral, Cohort 6 MDD, all subjects incl. 3 with emesis, read-out: AUC0-24 Mean (SD)",155 ng·h/mL
same,AUC(0-inf),[6],161 ng·h/mL
same,AUC(0-t),"16 mg, 16 mg oral, Cohort 6 MDD, all subjects incl. 3 with emesis, read-out: AUClast Mean (SD)",151 ng·h/mL
same,Cmax,"16 mg, 16 mg oral, Cohort 6 MDD, all subjects incl. 3 with emesis, read-out: Cmax Median",17.4 ng/mL
same,half-life,[6],334 min
same,Vd/F,[6],986 L
same,Tmax,"1 mg oral, Cohort 1 MDD, Day 1 and Day 22 pooled",1 h
same,Tmax,"3 mg oral, Cohort 2 NHV, Day 1",2 h
same,Tmax,"8 mg oral, Cohorts 2 and 3 NHV, pooled",2 h
same,Tmax,"10 mg oral, Cohort 3 NHV, Day 8",1 h
same,Tmax,"12 mg oral, Cohorts 4 and 5 MDD, Day 1 and Day 22",1.03 h
same,Tmax,"16 mg oral, Cohort 6 MDD, all subjects incl. 3 with emesis",1.03 h
same,"mean clearance (CL/F), on average","range of means, 1 to 10 mg doses",85.22 to 104.7 L/h
